Reference: article PMC8333425, “Discovery of a dual Ras and ARF6 inhibitor from a GPCR endocytosis screen” (Nature Communications, 2021)

Legend:
Test in all cases: KINOMEscan kinase binding assay
[1] = target: T1, 384 kinases from the human genome (Homo sapiens, UniProt O43683); settings: kinase BUB1 (Entrez BUB1)
T1 construct: purchased Eurofin/DiscoverX
In short: (§1)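 A panel of 384 human kinases was profiled by KINOMEscan binding in the presence of 10 µM compound. Kinase–ligand binding was given as percent of DMSO control, averaged from duplicates in a single run, with an S(10) selectivity score.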

[2] = target: T2, 384 kinases from the human genome (Homo sapiens, UniProt O76039); settings: kinase CDKL5 (Entrez CDKL5)
T2 construct: purchased Eurofin/DiscoverX
T2 sequence (O76039 whole entry): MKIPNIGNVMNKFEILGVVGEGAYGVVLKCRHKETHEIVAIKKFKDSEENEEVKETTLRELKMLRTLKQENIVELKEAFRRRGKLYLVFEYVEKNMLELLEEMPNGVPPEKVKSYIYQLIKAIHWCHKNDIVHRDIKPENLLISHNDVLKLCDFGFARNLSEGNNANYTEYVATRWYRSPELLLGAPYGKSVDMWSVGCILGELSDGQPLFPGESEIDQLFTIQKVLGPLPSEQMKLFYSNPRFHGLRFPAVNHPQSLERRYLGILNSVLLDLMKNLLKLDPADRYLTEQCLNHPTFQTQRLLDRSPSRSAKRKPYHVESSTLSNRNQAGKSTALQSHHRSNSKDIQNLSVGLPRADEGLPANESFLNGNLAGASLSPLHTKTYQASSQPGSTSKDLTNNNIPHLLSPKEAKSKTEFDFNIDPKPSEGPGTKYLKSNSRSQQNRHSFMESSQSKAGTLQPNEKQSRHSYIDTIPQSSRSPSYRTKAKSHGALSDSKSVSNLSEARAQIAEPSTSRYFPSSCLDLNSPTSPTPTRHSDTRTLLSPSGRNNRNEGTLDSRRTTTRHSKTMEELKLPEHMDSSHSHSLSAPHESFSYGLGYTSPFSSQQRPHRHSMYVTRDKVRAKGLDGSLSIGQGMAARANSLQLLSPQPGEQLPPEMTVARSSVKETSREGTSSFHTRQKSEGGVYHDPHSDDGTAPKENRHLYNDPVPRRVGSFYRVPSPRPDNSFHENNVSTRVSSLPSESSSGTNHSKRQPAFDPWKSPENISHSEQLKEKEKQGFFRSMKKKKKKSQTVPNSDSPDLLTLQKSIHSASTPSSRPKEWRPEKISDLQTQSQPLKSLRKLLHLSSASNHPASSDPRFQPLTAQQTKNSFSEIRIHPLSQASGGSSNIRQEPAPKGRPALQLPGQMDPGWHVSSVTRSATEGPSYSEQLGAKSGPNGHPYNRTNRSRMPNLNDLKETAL
In short: as §1

[3] = target: T3, 384 kinases from the human genome (Homo sapiens, UniProt P00519); settings: kinase ABL1-phosphorylated (Entrez ABL1)
T3 construct: purchased Eurofin/DiscoverX
In short: as §1

[4] = target: T4, 384 kinases from the human genome (Homo sapiens, UniProt P10721)
T4 construct: purchased Eurofin/DiscoverX
T4 sequence (P10721 26-976): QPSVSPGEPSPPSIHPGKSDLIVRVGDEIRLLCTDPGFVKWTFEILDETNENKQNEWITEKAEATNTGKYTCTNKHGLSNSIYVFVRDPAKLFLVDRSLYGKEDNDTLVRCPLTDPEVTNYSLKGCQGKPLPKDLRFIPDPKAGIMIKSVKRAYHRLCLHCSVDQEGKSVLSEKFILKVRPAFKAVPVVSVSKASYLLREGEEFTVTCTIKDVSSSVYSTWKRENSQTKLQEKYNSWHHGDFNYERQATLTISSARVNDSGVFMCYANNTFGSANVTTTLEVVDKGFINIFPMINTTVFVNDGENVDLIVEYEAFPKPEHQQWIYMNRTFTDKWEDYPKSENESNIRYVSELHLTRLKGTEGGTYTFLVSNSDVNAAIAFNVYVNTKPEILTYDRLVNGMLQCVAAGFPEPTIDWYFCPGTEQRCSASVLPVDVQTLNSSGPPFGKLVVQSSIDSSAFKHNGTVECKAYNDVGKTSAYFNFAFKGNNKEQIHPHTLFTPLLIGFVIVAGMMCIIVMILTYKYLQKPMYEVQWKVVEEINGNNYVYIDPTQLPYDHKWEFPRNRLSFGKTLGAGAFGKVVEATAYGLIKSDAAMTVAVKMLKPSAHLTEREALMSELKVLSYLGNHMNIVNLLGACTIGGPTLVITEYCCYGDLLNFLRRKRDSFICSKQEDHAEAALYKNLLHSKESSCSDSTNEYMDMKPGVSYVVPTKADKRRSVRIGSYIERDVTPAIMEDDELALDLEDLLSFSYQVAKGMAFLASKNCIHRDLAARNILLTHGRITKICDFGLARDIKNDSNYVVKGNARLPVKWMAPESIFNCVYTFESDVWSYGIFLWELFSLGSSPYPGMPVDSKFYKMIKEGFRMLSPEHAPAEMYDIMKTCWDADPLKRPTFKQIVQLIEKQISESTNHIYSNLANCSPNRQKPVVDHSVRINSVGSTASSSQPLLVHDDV
In short: as §1

[5] = target: T5, 384 kinases from the human genome (Homo sapiens, UniProt P14616); settings: kinase INSRR (Entrez INSRR)
T5 construct: purchased Eurofin/DiscoverX
In short: as §1

[6] = target: T6, 384 kinases from the human genome (Homo sapiens, UniProt P19784); settings: kinase CSNK2A2 (Entrez CSNK2A2)
T6 construct: purchased Eurofin/DiscoverX
In short: as §1

[7] = target: T7, 384 kinases from the human genome (Homo sapiens, UniProt P24723); settings: kinase PRKCH (Entrez PRKCH)
T7 construct: purchased Eurofin/DiscoverX
In short: as §1

[8] = target: T8, 384 kinases from the human genome (Homo sapiens, UniProt P25098); settings: kinase GRK2 (Entrez ADRBK1)
T8 construct: purchased Eurofin/DiscoverX
T8 sequence (P25098 whole entry): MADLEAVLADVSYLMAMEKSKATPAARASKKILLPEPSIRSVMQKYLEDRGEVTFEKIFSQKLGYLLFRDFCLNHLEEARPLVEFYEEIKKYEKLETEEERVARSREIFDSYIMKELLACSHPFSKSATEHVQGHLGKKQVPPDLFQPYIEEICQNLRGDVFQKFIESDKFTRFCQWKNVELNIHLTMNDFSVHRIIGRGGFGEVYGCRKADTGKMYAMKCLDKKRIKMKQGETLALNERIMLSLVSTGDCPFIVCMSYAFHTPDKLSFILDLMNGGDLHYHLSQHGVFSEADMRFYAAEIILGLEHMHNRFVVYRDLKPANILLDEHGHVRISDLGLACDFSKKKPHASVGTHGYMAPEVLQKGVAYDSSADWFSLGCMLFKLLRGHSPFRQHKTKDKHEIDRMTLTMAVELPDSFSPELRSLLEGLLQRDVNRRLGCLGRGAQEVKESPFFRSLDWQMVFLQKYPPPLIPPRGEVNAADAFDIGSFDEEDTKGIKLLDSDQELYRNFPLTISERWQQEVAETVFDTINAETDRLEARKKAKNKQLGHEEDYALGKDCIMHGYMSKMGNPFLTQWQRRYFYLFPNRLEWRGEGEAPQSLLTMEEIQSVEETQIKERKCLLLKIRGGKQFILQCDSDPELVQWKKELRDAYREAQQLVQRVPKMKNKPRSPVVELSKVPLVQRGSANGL
In short: as §1

[9] = target: T9, 384 kinases from the human genome (Homo sapiens, UniProt P29323); settings: kinase EPHB2 (Entrez EPHB2)
T9 construct: purchased Eurofin/DiscoverX
In short: as §1

[10] = target: T10, 384 kinases from the human genome (Homo sapiens, UniProt P31749); settings: kinase AKT1 (Entrez AKT1)
T10 construct: purchased Eurofin/DiscoverX
In short: as §1

[11] = target: T11, 384 kinases from the human genome (Homo sapiens, UniProt P31751); settings: kinase AKT2 (Entrez AKT2)
T11 construct: purchased Eurofin/DiscoverX
In short: as §1

[12] = target: T12, 384 kinases from the human genome (Homo sapiens, UniProt P35590); settings: kinase TIE1 (Entrez TIE1)
T12 construct: purchased Eurofin/DiscoverX
In short: as §1

[13] = target: T13, 384 kinases from the human genome (Homo sapiens, UniProt P36897); settings: kinase TGFBR1 (Entrez TGFBR1)
T13 construct: purchased Eurofin/DiscoverX
In short: as §1

[14] = target: T14, 384 kinases from the human genome (Homo sapiens, UniProt P51955); settings: kinase NEK2 (Entrez NEK2)
T14 construct: purchased Eurofin/DiscoverX
In short: as §1

[15] = target: T15, 384 kinases from the human genome (Homo sapiens, UniProt P51957); settings: kinase NEK4 (Entrez NEK4)
T15 construct: purchased Eurofin/DiscoverX
In short: as §1

[16] = target: T16, 384 kinases from the human genome (Homo sapiens, UniProt P53667); settings: kinase LIMK1 (Entrez LIMK1)
T16 construct: purchased Eurofin/DiscoverX
In short: as §1

[17] = target: T17, 384 kinases from the human genome (Homo sapiens, UniProt Q13627); settings: kinase DYRK1A (Entrez DYRK1A)
T17 construct: purchased Eurofin/DiscoverX
In short: as §1

[18] = target: T18, 384 kinases from the human genome (Homo sapiens, UniProt Q16832); settings: kinase DDR2 (Entrez DDR2)
T18 construct: purchased Eurofin/DiscoverX
T18 sequence (Q16832 22-855): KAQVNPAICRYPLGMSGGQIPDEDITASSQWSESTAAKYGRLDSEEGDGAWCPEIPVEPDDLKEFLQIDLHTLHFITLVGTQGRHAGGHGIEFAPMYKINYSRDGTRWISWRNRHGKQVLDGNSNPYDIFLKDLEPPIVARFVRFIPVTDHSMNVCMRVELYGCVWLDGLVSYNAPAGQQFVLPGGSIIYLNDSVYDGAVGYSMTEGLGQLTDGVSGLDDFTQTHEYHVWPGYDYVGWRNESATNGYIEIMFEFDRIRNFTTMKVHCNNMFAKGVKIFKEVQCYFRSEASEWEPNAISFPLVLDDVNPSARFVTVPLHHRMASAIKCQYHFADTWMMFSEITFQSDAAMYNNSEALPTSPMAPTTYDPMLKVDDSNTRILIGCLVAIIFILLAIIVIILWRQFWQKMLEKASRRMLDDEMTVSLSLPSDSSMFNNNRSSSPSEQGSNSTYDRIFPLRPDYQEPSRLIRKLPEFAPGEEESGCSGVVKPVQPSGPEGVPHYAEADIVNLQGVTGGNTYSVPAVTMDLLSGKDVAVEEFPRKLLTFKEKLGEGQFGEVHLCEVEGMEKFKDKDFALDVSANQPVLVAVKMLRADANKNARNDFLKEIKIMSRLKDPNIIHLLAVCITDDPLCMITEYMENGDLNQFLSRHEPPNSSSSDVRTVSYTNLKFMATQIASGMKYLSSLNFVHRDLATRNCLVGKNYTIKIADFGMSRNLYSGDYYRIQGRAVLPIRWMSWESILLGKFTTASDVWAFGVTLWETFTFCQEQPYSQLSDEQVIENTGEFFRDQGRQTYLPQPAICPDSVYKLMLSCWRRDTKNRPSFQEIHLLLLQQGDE
In short: as §1

[19] = target: T19, 384 kinases from the human genome (Homo sapiens, UniProt Q2M2I8)
T19 construct: purchased Eurofin/DiscoverX
T19 sequence (Q2M2I8 whole entry): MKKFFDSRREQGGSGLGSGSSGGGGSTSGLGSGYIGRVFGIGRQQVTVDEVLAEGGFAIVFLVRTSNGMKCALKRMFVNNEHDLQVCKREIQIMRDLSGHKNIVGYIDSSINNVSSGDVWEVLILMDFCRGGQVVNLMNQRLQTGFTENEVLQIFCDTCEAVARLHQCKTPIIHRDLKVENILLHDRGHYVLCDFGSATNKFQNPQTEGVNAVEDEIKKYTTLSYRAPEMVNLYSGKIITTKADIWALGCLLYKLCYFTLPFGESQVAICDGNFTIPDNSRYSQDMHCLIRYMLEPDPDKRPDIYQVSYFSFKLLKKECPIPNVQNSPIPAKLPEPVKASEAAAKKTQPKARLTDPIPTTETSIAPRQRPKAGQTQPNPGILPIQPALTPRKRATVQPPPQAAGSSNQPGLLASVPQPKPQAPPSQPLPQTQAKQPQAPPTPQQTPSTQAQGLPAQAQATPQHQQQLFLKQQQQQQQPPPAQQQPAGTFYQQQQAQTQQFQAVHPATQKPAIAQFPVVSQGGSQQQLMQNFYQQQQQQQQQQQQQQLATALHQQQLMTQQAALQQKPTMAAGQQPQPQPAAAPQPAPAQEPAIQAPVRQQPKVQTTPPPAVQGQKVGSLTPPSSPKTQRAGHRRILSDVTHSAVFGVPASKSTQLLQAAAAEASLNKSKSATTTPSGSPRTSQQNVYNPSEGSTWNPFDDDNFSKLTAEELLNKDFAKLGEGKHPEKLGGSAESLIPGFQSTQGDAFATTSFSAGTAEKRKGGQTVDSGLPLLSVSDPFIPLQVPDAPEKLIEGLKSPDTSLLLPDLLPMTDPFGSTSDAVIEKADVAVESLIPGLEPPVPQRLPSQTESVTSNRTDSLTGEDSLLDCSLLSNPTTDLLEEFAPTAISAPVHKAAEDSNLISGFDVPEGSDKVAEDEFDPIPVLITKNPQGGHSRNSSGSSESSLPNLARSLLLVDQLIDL
In short: as §1

[20] = target: T20, 384 kinases from the human genome (Homo sapiens, UniProt Q8WTQ7); settings: kinase GRK7 (Entrez GRK7)
T20 construct: purchased Eurofin/DiscoverX
In short: as §1

[21] = target: T21, 384 kinases from the human genome (Homo sapiens, UniProt Q96Q40); settings: kinase PFTAIRE2 (Entrez CDK15)
T21 construct: purchased Eurofin/DiscoverX
In short: as §1

[22] = target: T22, 384 kinases from the human genome (Homo sapiens, UniProt Q99755); settings: kinase PIP5K1A (Entrez PIP5K1A)
T22 construct: purchased Eurofin/DiscoverX
In short: as §1

[23] = target: T23, 384 kinases from the human genome (Homo sapiens, UniProt Q9H1R3); settings: kinase MYLK2 (Entrez MYLK2)
T23 construct: purchased Eurofin/DiscoverX
In short: as §1

[24] = target: T24, 384 kinases from the human genome (Homo sapiens, UniProt Q9H422); settings: kinase HIPK3 (Entrez HIPK3)
T24 construct: purchased Eurofin/DiscoverX
In short: as §1

[25] = target: T25, 384 kinases from the human genome (Homo sapiens, UniProt Q9UBE8); settings: kinase NLK (Entrez NLK)
T25 construct: purchased Eurofin/DiscoverX
T25 sequence (Q9UBE8 whole entry): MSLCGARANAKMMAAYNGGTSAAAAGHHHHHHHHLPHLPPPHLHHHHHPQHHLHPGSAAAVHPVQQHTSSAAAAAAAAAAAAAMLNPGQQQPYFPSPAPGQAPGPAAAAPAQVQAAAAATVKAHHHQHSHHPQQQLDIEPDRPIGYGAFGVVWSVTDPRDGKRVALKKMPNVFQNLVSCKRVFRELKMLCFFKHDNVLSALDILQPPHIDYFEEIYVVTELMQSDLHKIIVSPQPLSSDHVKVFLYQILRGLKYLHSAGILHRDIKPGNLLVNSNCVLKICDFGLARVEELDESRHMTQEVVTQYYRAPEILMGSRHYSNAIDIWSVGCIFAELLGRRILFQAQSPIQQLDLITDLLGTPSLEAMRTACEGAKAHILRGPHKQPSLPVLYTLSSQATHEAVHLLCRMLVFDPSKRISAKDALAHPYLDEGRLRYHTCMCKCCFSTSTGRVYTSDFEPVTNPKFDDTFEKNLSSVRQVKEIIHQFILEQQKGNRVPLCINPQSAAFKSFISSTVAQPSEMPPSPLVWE
In short: as §1

[26] = target: T26, 384 kinases from the human genome (Homo sapiens, UniProt Q9Y6M4); settings: kinase CSNK1G3 (Entrez CSNK1G3)
T26 construct: purchased Eurofin/DiscoverX
In short: as §1

CC(C)C(=O)N1CCN(c2ccc(NC(=O)c3cc4ccccc4o3)cc2Cl)CC1 [Compound 21]
Percent Control [1]: 99%
Percent Control [2]: 89%
Percent Control [3]: 89%
KIT binding to its ligand affected ([4]; 10 µM of 21, compared to DMSO (100%)): more than 90%
Percent Control ([4]; kinase KIT (Entrez KIT)): 5.9%
Percent Control ([4]; kinase KIT-autoinhibited (Entrez KIT)): 93%
Percent Control [5]: 97%
Percent Control [6]: 92%
Percent Control [7]: 92%
Percent Control [8]: 99%
Percent Control [9]: 94%
Percent Control [10]: 97%
Percent Control [11]: 100%
Percent Control [12]: 100%
Percent Control [13]: 79%
Percent Control [14]: 91%
Percent Control [15]: 98%
Percent Control [16]: 79%
Percent Control [17]: 98%
Percent Control [18]: 100%
binding to AAK1 ([19]; 10 µM of 21): failed to bind
Percent Control ([19]; kinase AAK1 (Entrez AAK1)): 100%
Percent Control [20]: 90%
Percent Control [21]: 100%
Percent Control [22]: 100%
Percent Control [23]: 80%
Percent Control [24]: 93%
Percent Control [25]: 100%
Percent Control [26]: 100%
